According to patent publication US11999758B2, “Inhibitors of the YAP/TAZ-TEAD interaction and their use in the treatment of cancer” (INVENTIVA, priority 2018, dated 2024):

Molecular target: T1, YAP-TEAD interaction (Homo sapiens, UniProt P28347)
T1 construct: expressed in transfected cells; host or cells: HEK293 GripTite 293 MSR (Invitrogen R795-07)
Experiment: Cell-based TEAD-GAL4 transactivation assay (luciferase reporter)
Details: HEK293 cells transfected with TEAD1-Gal4, YAP mutant (S127A, S397A) and luciferase reporter, compounds 0.1 μM to 30 μM; for Emax: HEK293, 24 h, read-out: TEAD-GAL4 Transactivation activity Max Act; for IC50: 24 h
Method in brief: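 HEK293 cells transiently transfected with Gal4-DBD–full-length human TEAD1, full-length YAP S127A/S397A (YAP/TEAD ratio 10) and a 5×GAL4-RE TK-luciferase reporter. Six hours later, compounds added semi-log from 0.1 to 30 μM (DMSO 0.5% control) for 24 h. Luciferase read; IC50 from 3-parameter fit.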

T1 sequence (P28347 whole entry): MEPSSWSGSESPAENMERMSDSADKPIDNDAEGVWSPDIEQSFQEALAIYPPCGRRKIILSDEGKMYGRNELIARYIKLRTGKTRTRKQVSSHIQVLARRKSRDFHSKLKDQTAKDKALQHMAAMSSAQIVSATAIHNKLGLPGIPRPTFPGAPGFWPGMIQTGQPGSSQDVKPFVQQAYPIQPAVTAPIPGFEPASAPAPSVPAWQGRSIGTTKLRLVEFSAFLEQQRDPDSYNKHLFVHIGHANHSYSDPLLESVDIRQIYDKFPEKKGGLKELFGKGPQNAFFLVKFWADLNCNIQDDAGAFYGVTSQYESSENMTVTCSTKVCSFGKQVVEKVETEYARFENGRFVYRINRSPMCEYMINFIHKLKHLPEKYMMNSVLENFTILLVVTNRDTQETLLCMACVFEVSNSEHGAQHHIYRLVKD

| Emax [%] | IC50 [nM] | SMILES |
| --- | --- | --- |
| 87 | 1360 | CC(C)CN(/N=C/c1ccc2c(c1)COB2O)c1ncnc2ccsc12 [Ex 35, N-[(E)-(1-hydroxy-3H-2,1-benzoxaborol-5-yl)methyleneamino]-N-isobutyl-thieno [3,2-d]pyrimidin-4-amine] |
| 60 | – | Cc1ccc2c(c1)C(N(C)/N=C/c1ccc3c(c1)COB3O)=NS2(=O)=O [Ex 36, N-[(E)-(1-hydroxy-3H-2,1-benzoxaborol-5-yl)methyleneamino]-N,5-dimethyl-1,1-dioxo-1,2-benzothiazol-3-amine] |
| 92 | 4550 | COc1ccc2c(c1)C(N(C)/N=C/c1ccc3c(c1)COB3O)=NS2(=O)=O [Ex 37, N-[(E)-(1-hydroxy-3H-2,1-benzoxaborol-5-yl)methyleneamino]-5-methoxy-N-methyl-1,1-dioxo-1,2-benzothiazol-3-amine] |
| 81 | 510 | CCN(/N=C/c1ccc2c(c1)COB2O)c1ncnc2ccsc12 [Ex 38, N-ethyl-N-[(E)-(1-hydroxy-3H-2,1-benzoxaborol-5-yl)methyleneamino]-thieno[3,2-d]pyrimidin-4-amine] |
| 85 | 690 | CCN(/N=C/c1ccc2c(c1)COB2O)c1ncnc2sccc12 [Ex 40, N-ethyl-N-[(E)-(1-hydroxy-3H-2,1-benzoxaborol-5-yl)methyleneamino]-thieno[2,3-d]pyrimidin-4-amine] |
| 83 | 570 | CCN(/N=C/c1ccc2c(c1)COB2O)c1ncnc2c1cnn2C [Ex 41, N-ethyl-N-[(E)-(1-hydroxy-3H-2,1-benzoxaborol-5-yl)methyleneamino]-1-methyl-pyrazolo[3,4-d]pyrimidin-4-amine] |
| 78 | 920 | CCN(/N=C/c1ccc2c(c1)COB2O)c1ncnc2c1ccn2C [Ex 44, N-ethyl-N-[(E)-(1-hydroxy-3H-2,1-benzoxaborol-5-yl)methyleneamino]-7-methyl-pyrrolo[2,3-d]pyrimidin-4-amine] |
| 63 | 1020 | CCN(/N=C/c1ccc2c(c1)COB2O)c1nc(C)nc2ccsc12 [Ex 45, N-ethyl-N-[(E)-(1-hydroxy-3H-2,1-benzoxaborol-5-yl)methyleneamino]-2-methyl-thieno[3,2-d]pyrimidin-4-amine] |
| 75 | 8480 | CN(/N=C/c1ccc2c(c1)COB2O)C1=NS(=O)(=O)C2=C1CCCC2 [Ex 51, N-[(E)-(1-hydroxy-3H-2,1-benzoxaborol-5-yl)methyleneamino]-N-methyl-1,1-dioxo-4,5,6,7-tetrahydro-1,2-benzothiazol-3-amine] |
| 79 | 5000 | COc1cnnc(N(C)/N=C/c2ccc3c(c2)COB3O)c1 [Ex 60, N-[(E)-(1-hydroxy-3H-2,1-benzoxaborol-5-yl)methyleneamino]-5-methoxy-N-methyl-pyridazin-3-amine] |

Continued, molecule first:

| SMILES | Emax [%] | IC50 [nM] |
| --- | --- | --- |
| CC(C)CN(/N=C/c1ccc2c(c1)CCOB2O)C1=NS(=O)(=O)c2ccccc21 [Ex 46, N-[(E)-(1-hydroxy-3,4-dihydro-2,1-benzoxaborinin-6-yl)methyleneamino]-N-isobutyl-1,1-dioxo-1,2-benzothiazol-3-amine] | 72 | – |
| CC(C)CN(/N=C/c1ccc2c(c1)CCCOB2O)C1=NS(=O)(=O)c2ccccc21 [Ex 47, N-[(E)-(1-hydroxy-4,5-dihydro-3H-2,1-benzoxaborepin-7-yl)methyleneamino]-N-isobutyl-1,1-dioxo-1,2-benzothiazol-3-amine] | 73 | – |
| COc1cc(/C=N/N(CC(C)C)C2=NS(=O)(=O)c3ccccc32)cc2c1B(O)OC2 [Ex 48, N-[(E)-(1-hydroxy-7-methoxy-3H-2,1-benzoxaborol-5-yl)methyleneamino]-N-isobutyl-1,1-dioxo-1,2-benzothiazol-3-amine] | 77 | – |
| CC(C)CN(/N=C/c1ccc2c(c1)C(C)OB2O)C1=NS(=O)(=O)c2ccccc21 (stereo not shown) [Ex 49, N-[(E)-(1-hydroxy-3-methyl-3H-2,1-benzoxaborol-5-yl)methyleneamino]-N-isobutyl-1,1-dioxo-1,2-benzothiazol-3-amine] | 88 | 4680 |
| CC1OB(O)c2ccc(/C=N/N(C)C3=NS(=O)(=O)c4ccccc43)cc21 (stereo not shown) [Ex 50, N-[(E)-(1-hydroxy-3-methyl-3H-2,1-benzoxaborol-5-yl)methyleneamino]-N-methyl-1,1-dioxo-1,2-benzothiazol-3-amine] | 81 | 5130 |
| COc1cc(C2=NN(C3=NS(=O)(=O)c4ccccc43)C(C)CC2)ccc1B(O)O (stereo not shown) [Ex 52, [4-[2-(1,1-dioxo-1,2-benzothiazol-3-yl)-3-methyl-4,5-dihydro-3H-pyridazin-6-yl]-2-methoxy-phenyl]boronic acid] | 70 | 1660 |
| CC1CCC(c2ccc3c(c2)COB3O)=NN1C1=NS(=O)(=O)c2ccccc21 (stereo not shown) [Ex 53, 3-[6-(1-hydroxy-3H-2,1-benzoxaborol-5-yl)-3-methyl-4,5-dihydro-3H-pyridazin-2-yl]-1,2-benzothiazole 1,1-dioxide] | 87 | 3040 |
| COc1cc(OC)c2c(c1)C(N1N=C(c3ccc(B(O)O)c(OC)c3)CCC1C)=NS2(=O)=O (stereo not shown) [Ex 54, [4-[2-(5,7-dimethoxy-1,1-dioxo-1,2-benzothiazol-3-yl)-3-methyl-4,5-dihydro-3H-pyridazin-6-yl]-2-methoxy-phenyl]boronic acid] | 76 | 2350 |
| COc1cc(C2=NN(c3ncnc4c(OC)cccc34)C(C)CC2)ccc1B(O)O (stereo not shown) [Ex 55, [2-methoxy-4-[2-(8-methoxyquinazolin-4-yl)-3-methyl-4,5-dihydro-3H-pyridazin-6-yl]phenyl]boronic acid] | 92 | 1530 |
| COc1cccc2c(N3N=C(c4ccc5c(c4)COB5O)CCC3C)ncnc12 (stereo not shown) [Ex 56, 4-[6-(1-hydroxy-3H-2,1-benzoxaborol-5-yl)-3-methyl-4,5-dihydro-3H-pyridazin-2-yl]-8-methoxy-quinazoline] | 84 | 1000 |
| COc1cc(C2=NN(C3=NS(=O)(=O)c4ccccc43)CC(C)(C)C2)ccc1B(O)O [Ex 57, [4-[2-(1,1-dioxo-1,2-benzothiazol-3-yl)-4,4-dimethyl-3,5-dihydro-pyridazin-6-yl]-2-methoxy-phenyl]boronic acid] | 84 | 3060 |
| COc1cc(C2=NN(C3=NS(=O)(=O)c4ccccc43)CC(C)O2)ccc1B(O)O (stereo not shown) [Ex 58, [4-[4-(1,1-dioxo-1,2-benzothiazol-3-yl)-6-methyl-5,6-dihydro-1,3,4-oxadiazin-2-yl]-2-methoxy-phenyl]boronic acid] | 81 | 3240 |
| COc1cc(/C=N/N(C)c2cc(C)cnn2)ccc1B(O)O [Ex 59, [2-methoxy-4-[(E)-[methyl-(5-methylpyridazin-3-yl)hydrazono]methyl]-phenyl] boronic acid] | 71 | – |
| COc1cc(/C=N/N(CC(C)C)C2=NS(=O)(=O)c3ccccc32)ccc1B1OC(=O)CN(C)CC(=O)O1 [Ex 61, 2-[4-[(E)-[(1,1-dioxo-1,2-benzothiazol-3-yl)-isobutyl-hydrazono]methyl]-2-methoxy-phenyl]-6-methyl-1,3,6,2-dioxazaborocane-4,8-dione] | 87 | 6630 |
